# Read-outs that look alike come from different tables or passages of the source.
# Columns and labels:
# Assay type in all cases: cell-based
# [1] = test system: Enterococcus faecalis; experiment: MIC by agar macrodilution (NCCLS), 373 Gram positive isolates, Athens 1998
# [2] = test system: Streptococcus pneumoniae and Haemophilus influenzae; experiment: MIC by broth microdilution (NCCLS), all isolates pooled
# [3] = test system: Proteus mirabilis; experiment: MIC by agar dilution (NCCLS), 322 nosocomial Gram negative isolates, Athens 1998; conditions: Proteus mirabilis; n = 57 isolates
# [4] = test system: Mycobacterium tuberculosis (MTB); experiment: MIC by proportions method (NCCLS M24-T, 1995), 82 MTB strains; conditions: compared with the other quinolones
# [5] = test system: Staphylococcus epidermidis; experiment: MIC by NCCLS broth microdilution, 1100 Japanese clinical isolates 1997-1998; conditions: for MIC50 / MIC90: Staphylococcus epidermidis
# [6] = test system: Proteus vulgaris; experiment: as above
# [7] = test system: Streptococcus pneumoniae; experiment: MIC by two-fold serial agar dilution, Sensitivity Disk agar-N (Kitasato isolates); conditions: Streptococcus pneumoniae; for MIC: read-out: MIC Range; for MIC50: read-out: MIC50
# [8] = test system: Gram negative anaerobic pathogens and facultative anaerobic pathogens; experiment: MIC by agar dilution, Brucella HK agar with 5% laked sheep blood, anaerobic reference strains
# [9] = Staphylococcus epidermidis oxacillin resistant (n=43)
# [10] = Staphylococcus epidermidis oxacillin susceptible (n=35)
smiles,measurement,setting,value
"N[C@@H]1[C@H]2CN(c3nc4c(cc3F)c(=O)c(C(=O)O)cn4-c3ccc(F)cc3F)C[C@@H]12 [Trovafloxacin, trovafloxacin]",MIC distribution (µg/ml) 0.06,[1],1
same,MIC distribution (µg/ml) 0.125,[1],0
same,MIC distribution (µg/ml) 0.25,[1],6
same,MIC distribution (µg/ml) 0.5,[1],21
same,MIC distribution (µg/ml) 1,[1],23
same,MIC distribution (µg/ml) 2,[1],6
same,MIC distribution (µg/ml) 4,[1],0
same,MIC distribution (µg/ml) 8,[1],3
same,MIC distribution (µg/ml) 16,[1],3
same,MIC distribution (µg/ml) ≤0.015,[1],0
same,MIC distribution (µg/ml) ≥32,[1],17
same,MIC50,"[1]; Enterococcus faecalis, n = 81 isolates, read-out: MIC50",1 mg/L
same,MIC90,"[1]; Enterococcus faecalis, n = 81 isolates, read-out: MIC90",≥ 32 mg/L
same,MIC90,"[2]; all (380) isolates tested (235 S. pneumoniae, 145 H. influenzae)",0.12 mg/L
same,MIC90,[2]; all isolates tested (602),0.25 mg/L
same,MIC50,[3],0.25 mg/L
same,MIC90,[3],16 mg/L
same,in vitro activity against MTB,[4],lower in vitro activity
same,MIC Range,[5]; [9],0.032 to 8 mg/L
same,MIC Range,[5]; [10],≤0.008 to 2 mg/L
same,MIC50,[5]; [9],1 mg/L
same,MIC90,[5]; [9],2 mg/L
same,MIC50,[5]; [10],0.032 mg/L
same,MIC90,[5]; [10],1 mg/L
same,MIC50,[6]; Proteus vulgaris,0.125 mg/L
same,MIC Range,[6]; Proteus vulgaris (n=25),0.063 to 2 mg/L
same,MIC90,"[6]; Proteus vulgaris (n=25), read-out: MIC90",1 mg/L
same,MIC90,[7],0.125 mg/L
same,MIC90,"[7]; 18 h, Ciprofloxacin-resistant (21), ciprofloxacin MIC ≥8 µg/ml, read-out: MIC90",4 mg/L
same,MIC,"[7]; 18 h, Ciprofloxacin-susceptible (94)",0.031 to 0.25 mg/L
same,MIC,"[7]; 18 h, Erythromycin-resistant (37)",0.063 to 2 mg/L
same,MIC,"[7]; 18 h, Minocycline-resistant (37)",0.063 to 2 mg/L
same,MIC,"[7]; 18 h, Penicillin-resistant (19)",0.031 to 0.25 mg/L
same,MIC,[7]; 18 h,0.125 to 4 mg/L
same,MIC50,[7]; Ciprofloxacin-resistant (21),2 mg/L
same,MIC50,[7]; Ciprofloxacin-susceptible (94),0.063 mg/L
same,MIC50,[7]; Erythromycin-resistant (37),0.063 mg/L
same,MIC90,"[7]; Erythromycin-resistant (37), read-out: MIC90",0.25 mg/L
same,MIC50,[7]; Minocycline-resistant (37),0.063 mg/L
same,MIC90,"[7]; Minocycline-resistant (37), read-out: MIC90",0.25 mg/L
same,MIC50,[7]; Penicillin-resistant (19),0.063 mg/L
same,MIC90,"[7]; Penicillin-resistant (19), read-out: MIC90",0.25 mg/L
same,MIC,[8],0.125 mg/L
same,MIC,"[8]; Bacteroides eggerthii, ATCC27754, Bacteroides eggerthii ATCC27754, read-out: MIC",0.5 mg/L
same,MIC,[8]; Bacteroides fragilis,0.125 mg/L
same,MIC,[8]; Bacteroides fragilis GA-I0558,0.125 mg/L
same,MIC,"[8]; Bacteroides fragilis, ATCC25285",0.125 mg/L
same,MIC,"[8]; Bacteroides fragilis, Bacteroides fragilis GA-I7955, read-out: MIC",0.25 mg/L
same,MIC,"[8]; Bacteroides fragilis, Bacteroides fragilis GAI10150, read-out: MIC",0.25 mg/L
same,MIC,"[8]; Bacteroides fragilis, Bacteroides fragilis GAI30079, read-out: MIC",0.5 mg/L
same,MIC,"[8]; Bacteroides fragilis, Bacteroides fragilis GAI30144, read-out: MIC",0.25 mg/L
same,MIC,"[8]; Bacteroides fragilis, NCTC10581, Bacteroides fragilis NCTC10581, read-out: MIC",0.25 mg/L
same,MIC,"[8]; Bacteroides ovatus, ATCC8483, Bacteroides ovatus ATCC8483, read-out: MIC",0.5 mg/L
same,MIC,"[8]; Bacteroides thetaiotaomicron, ATCC29741, Bacteroides thetaiotaomicron ATCC29741, read-out: MIC",0.5 mg/L
same,MIC,"[8]; Bilophilla wadsworthia WAL7959, read-out: MIC",0.5 mg/L
same,MIC,"[8]; Campylobacter gracilis, JCM8538, Campylobacter gracilis JCM8538, read-out: MIC",≤ 0.03 mg/L
same,MIC,"[8]; Campylobacter ureolyticus, NCTC10941, Bacteroides ureolyticus NCTC10941, read-out: MIC",≤ 0.03 mg/L
same,MIC,"[8]; Capnocytophaga ochracea, Capnocytophaga ochracea GAI5586, read-out: MIC",≤ 0.03 mg/L
same,MIC,"[8]; Fusobacterium necrophorum, ATCC25286, Fusobacterium necrophorum ATCC25286, read-out: MIC",0.25 mg/L
same,MIC,"[8]; Fusobacterium nucleatum, ATCC25586, Fusobacterium nucleatum ATCC25586, read-out: MIC",0.5 mg/L
same,MIC,"[8]; Fusobacterium varium, ATCC8501, Fusobacterium varium ATCC8501, read-out: MIC",4 mg/L
same,MIC,"[8]; Hoylesella oralis, ATCC33269, Prevotella oralis ATCC33269, read-out: MIC",2 mg/L
same,MIC,"[8]; Parabacteroides distasonis, ATCC8503, Bacteroides distasonis ATCC8503, read-out: MIC",0.5 mg/L
same,MIC,"[8]; Phocaeicola vulgatus, ATCC8482, Bacteroides vulgatus ATCC8482, read-out: MIC",0.5 mg/L
same,MIC,"[8]; Porphylomonas gingivalis ATCC33277, read-out: MIC",≤ 0.03 mg/L
same,MIC,"[8]; Porphyromonas asaccharolytica, ATCC25260",0.125 mg/L
